Experimental data: patent US12508176B2, “Sanitary article comprising a water-soluble dry coating comprising skin beneficial additives” (priority 2022, dated 2025)

Assay: transfer study of dry water-soluble coating from sanitary article to skin (tape stripping, LC-MS/MS)
Assay type: in vivo, test persons
Source text: FIG. 3 is a bar chart illustrating the results from a transfer study made with two sanitary articles according to the present invention. Eight test persons wore sanitary articles on three different spots on the volar forearms for three days (3 products per day). One spot was covered with products coated with formula A, one with products coated with formula B and one with reference product without any formula. After three days the skin in the test spots plus one additional spot where no product had been worn was harvested by means of tape stripping. The sample tape strips were extracted, analyzed by LC-MS/MS quantifying the betaine and allantoin content.

Structure (SMILES) | transfer to the skin (betaine and allantoin content of tape strips) (sanitary articles coated with formula A or B worn on volar forearms for three days, 3 products per day, tape stripping, LC-MS/MS, FIG. 3) | transfer to the skin (betaine and allantoin content of tape strips) (in vivo)
NC(=O)NC1NC(=O)NC1=O (centres unmarked) [allantoin] | readily detected on the skin | –
C[N+](C)(C)CC(=O)[O-] [betaine, trimethylglycine] | – | readily detected on the skin
